Experiment [1] deals with Staphylococci incl. multiresistant MRSA. The experiment is described as follows: Agar well diffusion. Conditions: 40 ul of 1 mg/ml in DMSO per well. Background: In agar diffusion tests the substance spreads into inoculated agar from a disc or well.
In experiment [2] the test system is α-haemolytic Streptococci. Put plainly: Agar well diffusion. Conditions: 40 ul of 1 mg/ml in DMSO per well.
The test system of experiment [3] is CNS incl. resistant and multiresistant MRSE. The experiment is described as follows: Agar well diffusion. The settings on record: 40 ul of 1 mg/ml in DMSO per well.
A further experiment relates to Streptococcus: group B. Put plainly: Agar well diffusion. The settings on record: 40 ul of 1 mg/ml in DMSO per well.
The test system of the next experiment is MRSA. The experiment is described as follows: Growth inhibition of clinical isolates. Conditions: approximately 100 strains of MRSA, several with additional resistance markers.
The test system of a further experiment is Streptococcus: group C. Put plainly: Agar well diffusion. The settings on record: 40 ul of 1 mg/ml in DMSO per well.
For another experiment, the system named is bacteria. Put plainly: Anti-bacterial activity (tables of particularly interesting compounds). The class given is cell-based. On the set-up: key: + indicates that the compound show effects.
For another experiment, the system named is virus. Put plainly: Anti-viral activity (tables of particularly interesting compounds). It counts as cell-based. On the set-up: key: + indicates that the compound show effects. The settings on record: compounds listed by R4 or R1 residue.
[4] abbreviates: compounds listed by R4 or R1 residue.
The mark [5] stands for this setting: peptide analogues and cyclic compounds.

Non-standard residues stand in square brackets, D forms with d. No end group written: not given here. dPhg = N[C@@H](C(=O)O)c1ccccc1; Phg = N[C@H](C(=O)O)c1ccccc1; code Z = not defined here; Orn = NCCC[C@H](N)C(=O)O; Mpa = O=C(O)CCS

On to `CC(C)C(CNC(=O)/C=C/c1ccccc1)NC(=O)CNC(=O)C(CCCNC(=N)N)NC(=O)OCc1ccccc1` (stereo not drawn) [(Gly^3)Cp1], for which the antibacterial effect entry in experiment [1] was “+”; in experiment [2], “−”; in experiment [3] it was “+”; with Streptococcus: group B it was “+”; in the experiment with Streptococcus: group C it was “+”. The “growth inhibition of MRSA strains” value with MRSA was “strongly inhibited in their growth”.
`C=C(C(=O)NCC(NC(=O)C(CC(C)C)NC(=O)C(CCCNC(=N)N)NC(=O)OCc1ccccc1)C(C)C)c1ccncc1` (stereo not drawn) [2-(4-pyridyl)acroyl]: the “Activity Anti-bacterial” value with bacteria (setting [4]) is “+”.
On the same count and under the same terms, next, `CC(C)CC(NC(=O)C(CCCNC(=N)N)NC(=O)OCc1ccccc1)C(=O)NC(CNC(=O)C=Cc1ccc(-c2ccccc2)cc1)C(C)C` (stereo not drawn) [Compound 4-phenylcinnamoyl]: “+”.
As to `CC(=O)N[C@@H](Cc1ccccc1)C(=O)NCC(NC(=O)C(CC(C)C)NC(=O)C(CCCNC(=N)N)NC(=O)OCc1ccccc1)C(C)C` (stereo partly drawn) [Acetyl-L-phenylalanoyl], the “Activity Anti-viral” value in the experiment on virus was “+”. The “Activity Anti-bacterial” value with bacteria (setting [4]) is “+”.
As for “cyclo(Phe-Arg-Leu-Val-Phe-Arg-Leu-Val) (FRLVFRLV; cyclic; printed: Phe-Arg-Leu-Val-Phe-Arg-Leu-Val)”, the “Activity Anti-bacterial” value in the experiment on bacteria (setting [5]) was “+”.
In the case of `CC(C)CC(NC(=O)C(CCCNC(=N)N)NC(=O)OCc1ccccc1)C(=O)NC(CNC(=O)/C=C/c1ccccc1)C(C)C` (stereo not drawn) [Benzyloxtcarbonyl], the “Activity Anti-bacterial” value in the experiment on bacteria (setting [4]) is “+”.
Same read-out and setting: the same measure for `CC(C)CC(NC(=O)C(CCCNC(=N)N)NC(=O)OCc1ccccc1)C(=O)NC(CNC(=O)[C@H](Br)Cc1ccccc1)C(C)C` (stereo partly drawn) [Compound D-2-bromo-3-phenylpropionyl]: “+”.
On the same count and under the same terms, next, `CC(C)CC(NC(=O)C(CCCNC(=N)N)NC(=O)OCc1ccccc1)C(=O)NC(CNC(=O)CCc1ccccc1)C(C)C` (stereo not drawn) [n = 2]: “+”; `CC(C)CC(NC(=O)C(CCCNC(=N)N)NC(=O)OCc1ccccc1)C(=O)NC(CNC(=O)C#Cc1ccccc1)C(C)C` (stereo not drawn) [Phenylpropiolyl]: “+”; `CC(C)CC(NC(=O)C(CCCNC(=N)N)NC(=O)CCc1ccccc1)C(=O)NC(CNC(=O)/C=C/c1ccccc1)C(C)C` (stereo not drawn) [Compound 3-phenylpropionyl]: “+”.
For cyclo(FRLVF[Orn]LV), the “Activity Anti-bacterial” value in the experiment with bacteria (setting [5]) was “+”.
As for `CC(C)CC(NC(=O)C(CCCNC(=N)N)NC(=O)OCc1ccccc1)C(=O)NC(CNC(=O)[C@@H](O)Cc1ccccc1)C(C)C` (stereo partly drawn) [Compound L-2-hydroxy-3-phenylpropionyl], the “Activity Anti-bacterial” value in the experiment on bacteria (setting [4]) is “+”.
The same measure, in the same setting: next, `CC(C)CC(NC(=O)C(CCCNC(=N)N)NC(=O)CCCc1ccccc1)C(=O)NC(CNC(=O)/C=C/c1ccccc1)C(C)C` (stereo not drawn) [Compound 4-phenylbutyryl]: “+”.
With `CC(C)CC(NC(=O)C(CCCNC(=N)N)NC(=O)OCc1ccccc1)C(=O)NC(CNC(=O)/C=C/c1ccccc1)C(C)C` (stereo not drawn) [trans-cinnamoyl], the “Activity Anti-viral” value in the experiment on virus is “+”.
For the compound `CC(C)CC(NC(=O)C(CCCNC(=N)N)NC(=O)Cc1ccccc1)C(=O)NC(CNC(=O)/C=C/c1ccccc1)C(C)C` (stereo not drawn) [Phenylacetyl], in the experiment on bacteria (setting [4]), the “Activity Anti-bacterial” value is “+”.
For the compound “cyclo(Tyr-Arg-Leu-Val-Tyr-Arg-Leu-Val) (YRLVYRLV; cyclic; printed: Tyr-Arg-Leu-Val-Tyr-Arg-Leu-Val)”, the “Activity Anti-bacterial” value in the experiment with bacteria (setting [5]) is “+”.
As to `CC(C)CC(NC(=O)C(CCCNC(=N)N)NC(=O)OCc1ccccc1)C(=O)NC(CNC(=O)/C=C/S(=O)(=O)Cc1ccccc1)C(C)C` (stereo not drawn) [trans-3-benzylsulphonylacroyl], the “Activity Anti-bacterial” value with bacteria (setting [4]) is given as “+”.
cyclo(F[Orn]LVF[Orn]LV): the “Activity Anti-bacterial” value in the experiment with bacteria (setting [5]) is “+”.
For `CC(C)CC(NC(=O)C(CCCNC(=N)N)NC(=O)OCc1ccccc1)C(=O)NC(CNC(=O)C=CC=Cc1ccccc1)C(C)C` (stereo not drawn) [5-phenylpenta-2,4-dienoyl], in the experiment with bacteria (setting [4]), the “Activity Anti-bacterial” value was “+”.
As for `CC(C)CC(NC(=O)C(CCCNC(=N)N)NC(=O)OCc1ccccc1)C(=O)NC(CNC(=O)/C=C/Cc1ccccc1)C(C)C` (stereo not drawn) [trans-3-benzylacroyl], in the experiment on bacteria (setting [4]), the “Activity Anti-bacterial” value is “+”.
Still for that read-out and setting: next, `CC(C)CC(NC(=O)C(CCCNC(=N)N)NC(=O)OCc1ccccc1)C(=O)NC(CNC(=O)[C@@H](Br)Cc1ccccc1)C(C)C` (stereo partly drawn) [Compound L-2-bromo-3-phenylpropionyl]: “+”.
With “cyclo(D-Tyr-Arg-Leu-Val-D-Tyr-Arg-Leu-Val) (chain 1 [dY]RLV; chain 2 [dY]RLV; also: two chains joined into one cyclic octapeptide, head-to-tail to a chain's N/C-terminus)”, the “Activity Anti-bacterial” value in the experiment on bacteria (setting [5]) is “+”.
On the same count and under the same terms, the same measure for cyclo([dPhg]RLV[dPhg]RLV): “+”; for “Z-Arg-Leu-Val-Phe-NH2 ({code Z}-RLVF-NH2; reading uncertain; also: printed as Z-Arg-Leu-Val-Phe-NH2)”: “+”; for cyclo([Phg]RLV[Phg]RLV): “+”.
Still for that read-out and setting: the same measure for Z-Arg-Leu-Val-cinnamoylamide: “+”.
Take `CC(=O)N[C@H](Cc1ccccc1)C(=O)NCC(NC(=O)C(CC(C)C)NC(=O)C(CCCNC(=N)N)NC(=O)OCc1ccccc1)C(C)C` (stereo partly drawn) [Acetyl-D-phenylalanoyl]: the “Activity Anti-viral” value in the experiment with virus is “+”. For the same compound, the “Activity Anti-bacterial” value in the experiment on bacteria (setting [4]) is on record as “+”.
In the case of `CC(C)CC(NC(=O)C(CCCNC(=N)N)NC(=O)OCc1ccccc1)C(=O)NC(CNC(=O)Cc1ccccc1)C(C)C` (stereo not drawn) [n = 1], the “Activity Anti-bacterial” value in the experiment with bacteria (setting [4]) is given as “+”.
On to “Mpa-Phe-Arg-Leu-Val-Phe-Cys-NH2 ([Mpa]FRLVFC-NH2; cysteine pairing not given here) [footnote: Mpa-Phe indicates 3-phenylpropionyl]”, for which the “Activity Anti-bacterial” value with bacteria (setting [5]) is reported as “+”.
`CC(C)CC(NC(=O)C(CCCNC(=N)N)NC(=O)OCc1ccccc1)C(=O)NC(CNC(=O)CCl)C(C)C` (stereo not drawn) [Chloroacetyl]: the “Activity Anti-bacterial” value in the experiment with bacteria (setting [4]) was “+”.
Turning to `CC(=O)NC(CCCNC(=N)N)C(=O)NC(CC(C)C)C(=O)NC(CNC(=O)/C=C/c1ccccc1)C(C)C` (stereo not drawn) [Acetyl], the “Activity Anti-bacterial” value with bacteria (setting [4]) was “+”.
Still for that read-out and setting: next, `CC(C)CC(NC(=O)C(CCCNC(=N)N)NC(=O)OCc1ccccc1)C(=O)NC(CNC(=O)[C@H](O)Cc1ccccc1)C(C)C` (stereo partly drawn) [Compound D-2-hydroxy-3-phenylpropionyl]: “+”.

For the origin of these results see patent publication US7691805B2, “Antimicrobial compounds” (Neobiotics AB, priority 2004, dated 2010).
